Experimental data: ChEMBL document CHEMBL1145390, “Synthesis and preliminary biological characterization of new semisynthetic derivatives of ramoplanin” (J Med Chem, 2007)
In brackets after ≈: the same amount, converted by molar mass.

Columns and labels:
[1] = Toxicity assessed as hemolysis in erythrocytes at 180 mg/L; type: cell-based, Erythrocyte; details: human, erythrocytes; read-out: Activity
Escherichia coli = experiment: Antibacterial activity against Escherichia coli SKF-12140 after 24 hrs by broth microdilution method; type: functional; details: read-out: MIC
Staphylococcus aureus [2] = experiment: Antibacterial activity against methicillin-resistant Staphylococcus aureus clinical isolate after 24 hrs by broth microdilution method; type: functional; details: read-out: MIC
Candida albicans = experiment: Antifungal activity against Candida albicans SKF-2270 after 24 hrs by broth microdilution method; type: functional; details: read-out: MIC
Enterococcus faecium [3] = experiment: Antibacterial activity against Enterococcus faecium after 24 hrs by broth microdilution method; type: functional; details: read-out: MIC
Streptococcus pyogenes = experiment: Antibacterial activity against Streptococcus pyogenes C203 after 24 hrs by broth microdilution method; type: functional; details: C203, 24 h, read-out: MIC
Enterococcus faecalis [4] = experiment: Antibacterial activity against Enterococcus faecalis after 24 hrs by broth microdilution method; type: functional; details: read-out: MIC
Staphylococcus aureus [5] = experiment: Antibacterial activity against Staphylococcus aureus Smith after 24 hrs by broth microdilution method; type: functional; details: read-out: MIC
[6] = Toxicity assessed as hemolysis in erythrocytes at 90 mg/L; type: cell-based, Erythrocyte; details: human, erythrocytes; read-out: Activity
Staphylococcus aureus [7] = experiment: Antibacterial activity against vancomycin-intermediate resistant Staphylococcus aureus clinical isolate after 24 hrs by broth microdilution method; type: functional
Staphylococcus aureus [8] = experiment: Antibacterial activity against methicillin-resistant and vancomycin-intermediate resistant Staphylococcus aureus clinical isolate after 24 hrs by broth microdilution method; type: functional; details: read-out: MIC
Enterococcus faecalis [9] = experiment: Antibacterial activity against vancomycin A-resistant Enterococcus faecalis after 24 hrs by broth microdilution method; type: functional; details: read-out: MIC
Enterococcus faecium [10] = experiment: Antibacterial activity against vancomycin A-resistant Enterococcus faecium clinical isolate after 24 hrs by broth microdilution method; type: functional; details: read-out: MIC

CC(C)C[C@@H]1NC(=O)CNC(=O)[C@H](c2ccc(O)cc2)NC(=O)[C@@H]([C@@H](C)O)NC(=O)[C@H](c2ccc(O[C@H]3O[C@H](CO)[C@@H](O)[C@H](O)[C@@H]3O[C@H]3O[C@H](CO)[C@@H](O)[C@H](O)[C@@H]3O)cc2)NC(=O)[C@@H](CCCN)NC(=O)[C@H](Cc2ccccc2)NC(=O)[C@H]([C@@H](C)O)NC(=O)[C@@H](c2ccc(O)cc2)NC(=O)[C@H](c2ccc(O)cc2)NC(=O)[C@@H](C(C)C)NC(=O)[C@@H](CCCN)NC(=O)[C@@H](c2ccc(O)cc2)NC(=O)[C@@H](CNC(=O)[C@H](CC(N)=O)NC(=O)Cc2ccc(O)cc2)[C@@H](C(N)=O)OC(=O)[C@H](c2ccc(O)c(Cl)c2)NC(=O)[C@@H](C)NC1=O
hemolysis at 180 mg/L [1]: 0%
MIC (Escherichia coli): > 32 µg/mL
MIC (Staphylococcus aureus [2]): > 32 µg/mL
MIC (Candida albicans): > 32 µg/mL
MIC (Enterococcus faecium [3]): > 32 µg/mL
MIC (Streptococcus pyogenes): 1 µg/mL (≈ 0.39 µM)
MIC (Enterococcus faecalis [4]): > 32 µg/mL
MIC (Staphylococcus aureus [5]): > 32 µg/mL
hemolysis at 90 mg/L [6]: 0%
MIC (Staphylococcus aureus [7]): > 32 µg/mL
MIC (Staphylococcus aureus [8]): > 32 µg/mL

CC(C)C[C@@H]1NC(=O)CNC(=O)[C@H](c2ccc(O)cc2)NC(=O)[C@@H]([C@@H](C)O)NC(=O)[C@H](c2ccc(O[C@H]3O[C@H](CO)[C@@H](O)[C@H](O)[C@@H]3O[C@H]3O[C@H](CO)[C@@H](O)[C@H](O)[C@@H]3O)cc2)NC(=O)[C@@H](CCCN)NC(=O)[C@H](Cc2ccccc2)NC(=O)[C@H]([C@@H](C)O)NC(=O)[C@@H](c2ccc(O)cc2)NC(=O)[C@H](c2ccc(O)cc2)NC(=O)[C@@H](C(C)C)NC(=O)[C@@H](CCCN)NC(=O)[C@@H](c2ccc(O)cc2)NC(=O)[C@@H](CNC(=O)[C@H](CC(N)=O)NC(=O)c2ccc(O)cc2)[C@@H](C(N)=O)OC(=O)[C@H](c2ccc(O)c(Cl)c2)NC(=O)[C@@H](C)NC1=O
hemolysis at 180 mg/L [1]: 4%
MIC (Escherichia coli): > 32 µg/mL
MIC (Staphylococcus aureus [2]): 32 µg/mL (≈ 12.5 µM)
MIC (Candida albicans): > 32 µg/mL
MIC (Enterococcus faecium [3]): 32 µg/mL (≈ 12.5 µM)
MIC (Streptococcus pyogenes): 0.5 µg/mL (≈ 0.196 µM)
MIC (Enterococcus faecalis [4]): 16 µg/mL (≈ 6.27 µM)
MIC (Staphylococcus aureus [5]): 32 µg/mL (≈ 12.5 µM)
hemolysis at 90 mg/L [6]: 0%
MIC (Staphylococcus aureus [7]): > 32 µg/mL
MIC (Enterococcus faecalis [9]): 32 µg/mL (≈ 12.5 µM)
MIC (Enterococcus faecium [10]): 32 µg/mL (≈ 12.5 µM)
MIC (Staphylococcus aureus [8]): > 32 µg/mL

CCCCCCCOc1ccc(C(=O)N[C@@H](CC(N)=O)C(=O)NC[C@@H]2C(=O)N[C@H](c3ccc(O)cc3)C(=O)N[C@H](CCCN)C(=O)N[C@H](C(C)C)C(=O)N[C@@H](c3ccc(O)cc3)C(=O)N[C@H](c3ccc(O)cc3)C(=O)N[C@@H]([C@@H](C)O)C(=O)N[C@@H](Cc3ccccc3)C(=O)N[C@H](CCCN)C(=O)N[C@@H](c3ccc(O[C@H]4O[C@H](CO)[C@@H](O)[C@H](O)[C@@H]4O[C@H]4O[C@H](CO)[C@@H](O)[C@H](O)[C@@H]4O)cc3)C(=O)N[C@H]([C@@H](C)O)C(=O)N[C@@H](c3ccc(O)cc3)C(=O)NCC(=O)N[C@@H](CC(C)C)C(=O)N[C@H](C)C(=O)N[C@@H](c3ccc(O)c(Cl)c3)C(=O)O[C@@H]2C(N)=O)cc1
hemolysis at 180 mg/L [1]: 21%
MIC (Escherichia coli): > 32 µg/mL
MIC (Staphylococcus aureus [2]): 4 µg/mL (≈ 1.51 µM)
MIC (Candida albicans): > 32 µg/mL
MIC (Enterococcus faecium [3]): 2 µg/mL (≈ 0.755 µM)
MIC (Streptococcus pyogenes): 2 µg/mL (≈ 0.755 µM)
MIC (Enterococcus faecalis [4]): 2 µg/mL (≈ 0.755 µM)
MIC (Staphylococcus aureus [5]): 8 µg/mL (≈ 3.02 µM)
hemolysis at 90 mg/L [6]: 0%
MIC (Staphylococcus aureus [7]): 8 µg/mL (≈ 3.02 µM)
MIC (Enterococcus faecalis [9]): 2 µg/mL (≈ 0.755 µM)
MIC (Enterococcus faecium [10]): 1 µg/mL (≈ 0.378 µM)
MIC (Staphylococcus aureus [8]): 16 µg/mL (≈ 6.04 µM)

CCCCOc1ccc(C(=O)N[C@@H](CC(N)=O)C(=O)NC[C@@H]2C(=O)N[C@H](c3ccc(O)cc3)C(=O)N[C@H](CCCN)C(=O)N[C@H](C(C)C)C(=O)N[C@@H](c3ccc(O)cc3)C(=O)N[C@H](c3ccc(O)cc3)C(=O)N[C@@H]([C@@H](C)O)C(=O)N[C@@H](Cc3ccccc3)C(=O)N[C@H](CCCN)C(=O)N[C@@H](c3ccc(O[C@H]4O[C@H](CO)[C@@H](O)[C@H](O)[C@@H]4O[C@H]4O[C@H](CO)[C@@H](O)[C@H](O)[C@@H]4O)cc3)C(=O)N[C@H]([C@@H](C)O)C(=O)N[C@@H](c3ccc(O)cc3)C(=O)NCC(=O)N[C@@H](CC(C)C)C(=O)N[C@H](C)C(=O)N[C@@H](c3ccc(O)c(Cl)c3)C(=O)O[C@@H]2C(N)=O)cc1OCCCC
hemolysis at 180 mg/L [1]: 47%
MIC (Escherichia coli): > 32 µg/mL
MIC (Staphylococcus aureus [2]): 8 µg/mL (≈ 2.99 µM)
MIC (Candida albicans): > 32 µg/mL
MIC (Enterococcus faecium [3]): 1 µg/mL (≈ 0.373 µM)
MIC (Streptococcus pyogenes): 1 µg/mL (≈ 0.373 µM)
MIC (Enterococcus faecalis [4]): 1 µg/mL (≈ 0.373 µM)
MIC (Staphylococcus aureus [5]): 2 µg/mL (≈ 0.747 µM)
hemolysis at 90 mg/L [6]: 0%
MIC (Staphylococcus aureus [7]): 16 µg/mL (≈ 5.97 µM)
MIC (Enterococcus faecalis [9]): 1 µg/mL (≈ 0.373 µM)
MIC (Enterococcus faecium [10]): 1 µg/mL (≈ 0.373 µM)
MIC (Staphylococcus aureus [8]): 16 µg/mL (≈ 5.97 µM)

CCCCCCCCCCCCCC(=O)N[C@@H](CC(N)=O)C(=O)NC[C@@H]1C(=O)N[C@H](c2ccc(O)cc2)C(=O)N[C@H](CCCN)C(=O)N[C@H](C(C)C)C(=O)N[C@@H](c2ccc(O)cc2)C(=O)N[C@H](c2ccc(O)cc2)C(=O)N[C@@H]([C@@H](C)O)C(=O)N[C@@H](Cc2ccccc2)C(=O)N[C@H](CCCN)C(=O)N[C@@H](c2ccc(O[C@H]3O[C@H](CO)[C@@H](O)[C@H](O)[C@@H]3O[C@H]3O[C@H](CO)[C@@H](O)[C@H](O)[C@@H]3O)cc2)C(=O)N[C@H]([C@@H](C)O)C(=O)N[C@@H](c2ccc(O)cc2)C(=O)NCC(=O)N[C@@H](CC(C)C)C(=O)N[C@H](C)C(=O)N[C@@H](c2ccc(O)c(Cl)c2)C(=O)O[C@@H]1C(N)=O
hemolysis at 180 mg/L [1]: 59%
MIC (Escherichia coli): > 32 µg/mL
MIC (Staphylococcus aureus [2]): 16 µg/mL (≈ 6.06 µM)
MIC (Candida albicans): > 32 µg/mL
MIC (Enterococcus faecium [3]): 8 µg/mL (≈ 3.03 µM)
MIC (Streptococcus pyogenes): 4 µg/mL (≈ 1.51 µM)
MIC (Enterococcus faecalis [4]): 4 µg/mL (≈ 1.51 µM)
MIC (Staphylococcus aureus [5]): 16 µg/mL (≈ 6.06 µM)
hemolysis at 90 mg/L [6]: 2%
MIC (Staphylococcus aureus [7]): 32 µg/mL (≈ 12.1 µM)
MIC (Enterococcus faecalis [9]): 4 µg/mL (≈ 1.51 µM)
MIC (Enterococcus faecium [10]): 4 µg/mL (≈ 1.51 µM)
MIC (Staphylococcus aureus [8]): 32 µg/mL (≈ 12.1 µM)

CCCCCCCCC(=O)N[C@@H](CC(N)=O)C(=O)NC[C@@H]1C(=O)N[C@H](c2ccc(O)cc2)C(=O)N[C@H](CCCN)C(=O)N[C@H](C(C)C)C(=O)N[C@@H](c2ccc(O)cc2)C(=O)N[C@H](c2ccc(O)cc2)C(=O)N[C@@H]([C@@H](C)O)C(=O)N[C@@H](Cc2ccccc2)C(=O)N[C@H](CCCN)C(=O)N[C@@H](c2ccc(O[C@H]3O[C@H](CO)[C@@H](O)[C@H](O)[C@@H]3O[C@H]3O[C@H](CO)[C@@H](O)[C@H](O)[C@@H]3O)cc2)C(=O)N[C@H]([C@@H](C)O)C(=O)N[C@@H](c2ccc(O)cc2)C(=O)NCC(=O)N[C@@H](CC(C)C)C(=O)N[C@H](C)C(=O)N[C@@H](c2ccc(O)c(Cl)c2)C(=O)O[C@@H]1C(N)=O
hemolysis at 180 mg/L [1]: 5%
MIC (Escherichia coli): > 32 µg/mL
MIC (Staphylococcus aureus [2]): 1 µg/mL (≈ 0.389 µM)
MIC (Candida albicans): > 32 µg/mL
MIC (Enterococcus faecium [3]): 0.125 µg/mL (≈ 0.0486 µM)
MIC (Streptococcus pyogenes): 0.125 µg/mL (≈ 0.0486 µM)
MIC (Enterococcus faecalis [4]): 0.06 µg/mL (≈ 0.0233 µM)
MIC (Staphylococcus aureus [5]): 0.25 µg/mL (≈ 0.0973 µM)
hemolysis at 90 mg/L [6]: 0%
MIC (Staphylococcus aureus [7]): 4 µg/mL (≈ 1.56 µM)
MIC (Enterococcus faecalis [9]): 0.06 µg/mL (≈ 0.0233 µM)
MIC (Enterococcus faecium [10]): < 0.03 µg/mL
MIC (Staphylococcus aureus [8]): 8 µg/mL (≈ 3.11 µM)

CCCCCCC(=O)N[C@@H](CC(N)=O)C(=O)NC[C@@H]1C(=O)N[C@H](c2ccc(O)cc2)C(=O)N[C@H](CCCN)C(=O)N[C@H](C(C)C)C(=O)N[C@@H](c2ccc(O)cc2)C(=O)N[C@H](c2ccc(O)cc2)C(=O)N[C@@H]([C@@H](C)O)C(=O)N[C@@H](Cc2ccccc2)C(=O)N[C@H](CCCN)C(=O)N[C@@H](c2ccc(O[C@H]3O[C@H](CO)[C@@H](O)[C@H](O)[C@@H]3O[C@H]3O[C@H](CO)[C@@H](O)[C@H](O)[C@@H]3O)cc2)C(=O)N[C@H]([C@@H](C)O)C(=O)N[C@@H](c2ccc(O)cc2)C(=O)NCC(=O)N[C@@H](CC(C)C)C(=O)N[C@H](C)C(=O)N[C@@H](c2ccc(O)c(Cl)c2)C(=O)O[C@@H]1C(N)=O
hemolysis at 180 mg/L [1]: 1%
MIC (Escherichia coli): > 32 µg/mL
MIC (Staphylococcus aureus [2]): 1 µg/mL (≈ 0.393 µM)
MIC (Candida albicans): > 32 µg/mL
MIC (Enterococcus faecium [3]): 1 µg/mL (≈ 0.393 µM)
MIC (Streptococcus pyogenes): < 0.03 µg/mL
MIC (Enterococcus faecalis [4]): 0.5 µg/mL (≈ 0.197 µM)
MIC (Staphylococcus aureus [5]): 1 µg/mL (≈ 0.393 µM)
hemolysis at 90 mg/L [6]: 2%
MIC (Staphylococcus aureus [7]): 4 µg/mL (≈ 1.57 µM)
MIC (Enterococcus faecalis [9]): 0.5 µg/mL (≈ 0.197 µM)
MIC (Enterococcus faecium [10]): 1 µg/mL (≈ 0.393 µM)
MIC (Staphylococcus aureus [8]): 8 µg/mL (≈ 3.15 µM)
